Reference: ChEMBL document CHEMBL1144554, “In vitro cytotoxicity evaluation of some substituted isatin derivatives” (Bioorg Med Chem, 2007)
pIC50: −log10 of the molar value. Calls of active or inactive are those of the source. The rule behind the calls is not given here.

Experiments:
U-937 = assay: Cytotoxicity against human U937 cells; format: ADME, cell-based
MDA-MB-231 = assay: Cytotoxicity against human MDA-MB-231 cells; format: cell-based
MCF7 = assay: Cytotoxicity against human MCF7 cells; format: cell-based
Jurkat = assay: Cytotoxicity against human Jurkat cells; format: cell-based
PC-3 = assay: Cytotoxicity against human PC3 cells; format: cell-based
HCT-116 = assay: Cytotoxicity against human HCT116 cells; format: cell-based
Caspase-7 (Homo sapiens) = target: T1, Caspase-7 (Homo sapiens) (UniProt P55210); assay: Activation of caspase 7 in Jurkat cells after 5 hrs by apoptosis assay; format: cell-based
T1 sequence (whole entry): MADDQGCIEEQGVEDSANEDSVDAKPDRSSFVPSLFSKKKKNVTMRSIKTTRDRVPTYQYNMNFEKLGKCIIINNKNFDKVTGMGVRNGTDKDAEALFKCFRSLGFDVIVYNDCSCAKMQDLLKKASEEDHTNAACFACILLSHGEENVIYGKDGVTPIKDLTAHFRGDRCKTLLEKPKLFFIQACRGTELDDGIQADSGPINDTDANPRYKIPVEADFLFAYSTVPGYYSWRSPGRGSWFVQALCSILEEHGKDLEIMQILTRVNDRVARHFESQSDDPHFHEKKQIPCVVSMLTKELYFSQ

Caspase-3 (Homo sapiens) = target: T2, Caspase-3 (Homo sapiens) (UniProt P42574); assay: Activation of caspase 3 in Jurkat cells after 5 hr by apoptosis assay; format: cell-based
T2 sequence (whole entry): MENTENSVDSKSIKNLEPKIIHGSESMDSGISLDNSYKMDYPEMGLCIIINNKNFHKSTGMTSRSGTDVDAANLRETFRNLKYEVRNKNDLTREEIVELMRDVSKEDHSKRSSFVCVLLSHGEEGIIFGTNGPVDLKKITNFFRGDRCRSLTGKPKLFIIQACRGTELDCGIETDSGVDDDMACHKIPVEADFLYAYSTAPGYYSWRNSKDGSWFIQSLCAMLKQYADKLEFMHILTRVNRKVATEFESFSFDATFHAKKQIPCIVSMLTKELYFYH

[1] = target: Cyclin-dependent kinase 2 (Homo sapiens) (UniProt P24941); assay: Inhibition of CDK2 at 100 uM

Row | Compound | pIC50 (U-937) | further results
1 | O=C1Nc2c(Br)cccc2C1=O | 4.08 | –
2 | O=C1Nc2ccc([N+](=O)[O-])cc2C1=O [5-NITROISATIN] | 3.88 | –
3 | O=C1Nc2cc(Br)c(Br)cc2C1=O | 4.94 | pIC50 (MDA-MB-231): 4.38; pIC50 (MCF7): 4.69; pIC50 (Jurkat): 4.69; pIC50 (PC-3): 4.39; pIC50 (HCT-116): 4.43
4 | Oc1[nH]c2ccccc2c1/N=N/c1ccccc1 | < 3.68 | –
5 | O=C1Nc2c(Br)cc([N+](=O)[O-])cc2C1=O | < 3.43 | –
6 | O=C1Nc2c(cc(Br)c(Br)c2Br)C1=O | 5.17 | pIC50 (MDA-MB-231): 4.66; Activity (Caspase-7 (Homo sapiens)): Active; pIC50 (MCF7): 4.88; pIC50 (Jurkat): 5.24; Activity (Caspase-3 (Homo sapiens)): Active; pIC50 (PC-3): 4.59; pIC50 (HCT-116): 4.80
7 | O=C1Nc2ccc(Br)cc2C1=O | 4.19 | –
8 | COc1ccc2c(c1)C(=O)C(=O)N2 [5-METHOXYISATIN] | 3.38 | –
9 | O=C1Nc2c(I)cc(I)cc2C1=O | 5.11 | pIC50 (MDA-MB-231): 4.38; pIC50 (MCF7): 4.74; pIC50 (Jurkat): 4.68; pIC50 (PC-3): 4.14; pIC50 (HCT-116): 4.62
10 | O=C1Nc2c(cc(Br)cc2[N+](=O)[O-])C1=O | 3.59 | –
11 | O=C1Nc2cc(Br)c([N+](=O)[O-])cc2C1=O | 4.77 | –
12 | CN1C(=O)C(=O)c2ccccc21 | 3.62 | –
13 | O=C1Nc2cc(Br)ccc2C1=O | 4.13 | –
14 | O=C1Nc2c(Br)cc(Br)cc2/C1=N/c1ccccc1 | 4.86 | –
15 | O=C1Nc2cccc(Br)c2C1=O | 3.67 | –
16 | O=C1Nc2ccccc2C1=O [ISATIN] | 3.25 | –
17 | O=C1Nc2ccc(F)cc2C1=O [5-FLUOROISATIN] | 4.01 | –
18 | O=C1Nc2ccc(I)cc2C1=O [5-IODOISATIN] | 4.27 | –
19 | O=C1Nc2c(Br)cc(Br)cc2C1=O | – | inhibition [1]: 44%
